Results reported in patent publication US9656988B2 (Pharmacyclics LLC, priority 2013, dated 2017).
Like-named read-outs stand apart in the source and are kept apart here.

Molecular target: BTK (Homo sapiens (Human), UniProt Q06187)
Test: Btk in vitro inhibitory activity (one of Method A TR-FRET, Method B electrophoretic mobility shift, Method C radiometric filter binding)
Assay type: biochemical
[1] = determined using one of the methods of Example 355a, 355b and 355c, read-out: BTK IC50

Chain of BTK (Q06187 whole entry): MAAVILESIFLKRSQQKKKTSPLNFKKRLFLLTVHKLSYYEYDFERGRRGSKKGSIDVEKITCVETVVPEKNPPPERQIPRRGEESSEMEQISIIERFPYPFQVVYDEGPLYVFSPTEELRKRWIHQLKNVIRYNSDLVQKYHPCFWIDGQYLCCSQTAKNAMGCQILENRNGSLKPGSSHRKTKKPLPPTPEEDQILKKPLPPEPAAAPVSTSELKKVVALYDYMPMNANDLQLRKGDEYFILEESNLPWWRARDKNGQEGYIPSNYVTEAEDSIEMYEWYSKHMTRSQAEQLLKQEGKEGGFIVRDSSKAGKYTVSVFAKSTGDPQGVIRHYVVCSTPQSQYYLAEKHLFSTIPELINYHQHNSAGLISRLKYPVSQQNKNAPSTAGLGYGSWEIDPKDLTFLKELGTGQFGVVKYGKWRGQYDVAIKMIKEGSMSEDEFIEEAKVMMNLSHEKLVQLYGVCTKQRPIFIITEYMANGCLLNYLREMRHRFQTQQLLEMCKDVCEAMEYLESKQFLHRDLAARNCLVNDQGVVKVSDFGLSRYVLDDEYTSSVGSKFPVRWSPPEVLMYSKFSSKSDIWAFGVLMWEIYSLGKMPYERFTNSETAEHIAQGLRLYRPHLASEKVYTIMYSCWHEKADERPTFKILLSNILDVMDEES

Row | SMILES | IC50 (Btk (IC50)) | IC50 [1] | IC50 (read-out: Btk (IC50))
1 | NC(=O)c1nnc(N2CCC[C@@H](NC(=O)c3ccc4ccccc4n3)C2)nc1Nc1ccc(C(=O)N2CCOCC2)cc1 [Example 84, (R)—N-(1-(6-carbamoyl-5-(4-(morpholine-4-carbonyl)phenylamino)-1,2,4-triazin-3-yl)piperidin-3-yl)quinoline-2-carboxamide] | 10 to 100 nM | 10 to 100 nM | 
2 | CCN(CC)C(=O)N[C@@H]1CCCN(c2nnc(C(N)=O)c(Nc3ccc(C(=O)N4CCOCC4)cc3)n2)C1 [Example 99, (R)-3-(3-(3,3-diethylureido)piperidin-1-yl)-5-(4-(morpholine-4-carbonyl)phenylamino)-1,2,4-triazine-6-carboxamide] |  |  | < 10 nM
3 | CCOc1ccc(C(=O)N[C@@H]2CCCN(c3nnc(C(N)=O)c(Nc4ccc(C(=N)N(C)C)cc4)n3)C2)cc1 [Example 342, (R)-5-(4-(N,N-dimethylcarbamimidoyl)phenylamino)-3-(3-(4-ethoxybenzamido)piperidin-1-yl)-1,2,4-triazine-6-carboxamide] |  | 10 to 100 nM | 10 to 100 nM
4 | C[C@@H]1[C@H](NC(=O)N(C)C)CCCN1c1cnc(C(N)=O)c(Nc2ccc(C3(C#N)CC3)cc2)n1 [Example 240, 3-(4-(1-cyanocyclopropyl)phenylamino)-5-((2R,3R)-3-(3,3-dimethylureido)-2-methylpiperidin-1-yl)pyrazine-2-carboxamide] |  | < 10 nM | < 10 nM
5 | CCN(C)C(=O)N[C@@H]1CCCN(c2cnc(C(N)=O)c(Nc3ccc(C4CCN(C)CC4)cc3)n2)C1 [Example 166, (R)-5-(3-(3-ethyl-3-methylureido)piperidin-1-yl)-3-(4-(1-methylpiperidin-4-yl)phenylamino)pyrazine-2-carboxamide] |  | < 10 nM | 
6 | CC(C)(C)OC(=O)N1CC[C@@H](Nc2nnc(C(N)=O)c(Nc3ccc(C(=O)N4CCOCC4)cc3)n2)C1 [Example 68, (R)-tert-butyl 3-(6-carbamoyl-5-(4-(morpholine-4-carbonyl)phenylamino)-1,2,4-triazin-3-ylamino)pyrrolidine-1-carboxylate] |  | 100 to 1000 nM | 
7 | CCC(=O)N1CCC(C)(c2ccc(Nc3nc(N4CCC[C@@H](N5CCN(C)C5=O)C4)cnc3C(N)=O)cc2)CC1 [Example 269, (R)-3-(4-(4-methyl-1-propionylpiperidin-4-yl)phenylamino)-5-(3-(3-methyl-2-oxoimidazolidin-1-yl)piperidin-1-yl)pyrazine-2-carboxamide] |  | < 10 nM | < 10 nM
8 | C[C@@H]1[C@H](NC(=O)N(C)C)CCCN1c1cnc(C(N)=O)c(Nc2ccc(C3(C(N)=O)CCCC3)cc2)n1 [Example 249, 3-(4-(1-carbamoylcyclopentyl)phenylamino)-5-((2R,3R)-3-(3,3-dimethylureido)-2-methylpiperidin-1-yl)pyrazine-2-carboxamide] |  | < 10 nM | < 10 nM
9 | CN1CCC(c2ccc(Nc3nc(N4CCC[C@@H](NC(=O)N(C)C)C4)cnc3C(N)=O)cc2)CC1 [Example 165] |  | < 10 nM | 
10 | COc1ccc(C(=O)N[C@@H]2CCCN(c3cnc(C(N)=O)c(Nc4ccc(S(C)(=O)=O)cc4)n3)C2)cc1 [Example 117, (R)-5-(3-(4-methoxybenzamido)piperidin-1-yl)-3-(4-(methylsulfonyl)phenylamino)pyrazine-2-carboxamide] |  | < 10 nM | 
11 | CN(C)C(=O)N[C@@H]1CCCN(c2cnc(C(N)=O)c(Nc3ccc(C4CCN(C(=O)C5CC5)CC4)cc3)n2)C1 [Example 171, (R)-3-(4-(1-(cyclopropanecarbonyl)piperidin-4-yl)phenylamino)-5-(3-(3,3-dimethylureido)piperidin-1-yl)pyrazine-2-carboxamide] |  | < 10 nM | < 10 nM
12 | NC(=O)c1nnc(N2CC[C@@H](NC(=O)C(F)(F)F)C2)nc1Nc1ccc(C(=O)N2CCOCC2)cc1 [Example 51, (R)-5-(4-(morpholine-4-carbonyl)phenylamino)-3-(3-(2,2,2-trifluoroacetamido)pyrrolidin-1-yl)-1,2,4-triazine-6-carboxamide] |  | 100 to 1000 nM | 
13 | COc1ccc(C(=O)N[C@@H]2CCCN(c3nnc(C(N)=O)c(Nc4ccc(C5CCN(C6CCCC6)CC5)cc4)n3)C2)cc1 [Example 334, (R)-5-(4-(1-cyclopentylpiperidin-4-yl)phenylamino)-3-(3-(4-methoxybenzamido)piperidin-1-yl)-1,2,4-triazine-6-carboxamide] |  | < 10 nM | 
14 | CN(C)C(=O)N[C@@H]1CCCN(c2cnc(C(N)=O)c(Nc3ccc(C4(C#N)CC4)cc3)n2)C1 [Example 199, (R)-3-(4-(1-cyanocyclopropyl)phenylamino)-5-(3-(3,3-dimethylureido)piperidin-1-yl)pyrazine-2-carboxamide] |  | < 10 nM | < 10 nM
15 | COc1ccc(C(=O)N[C@@H]2CCCN(c3nnc(C(N)=O)c(Nc4ccc(N5CCC(C(=O)N(C)C)CC5)cc4)n3)C2)cc1 [Example 332, (R)-5-(4-(4-(dimethylcarbamoyl)piperidin-1-yl)phenylamino)-3-(3-(4-methoxybenzamido)piperidin-1-yl)-1,2,4-triazine-6-carboxamide] |  | < 10 nM | 
16 | COc1ccc(C(=O)N[C@@H]2CCCN(c3cnc(C(N)=O)c(Nc4ccc(N5CCC(C(=O)N(C)C)CC5)cc4)n3)C2)cc1 [Example 144, (R)-3-(4-(4-(dimethylcarbamoyl)piperidin-1-yl)phenylamino)-5-(3-(4-methoxybenzamido)piperidin-1-yl)pyrazine-2-carboxamide] | < 10 nM | < 10 nM | 
17 | CN(C)CCOc1ccc(Nc2nc(N3CCC[C@@H](NC(=O)N(C)C)C3)cnc2C(N)=O)cc1 [Example 191, (R)-3-(4-(2-(dimethylamino)ethoxy)phenylamino)-5-(3-(3,3-dimethylureido)piperidin-1-yl)pyrazine-2-carboxamide] | 10 to 100 nM | 10 to 100 nM | 
18 | C[C@H]1[C@H](NC(=O)N(C)C)CCCN1c1cnc(C(N)=O)c(Nc2ccc(C3CCN(C4CCCC4)CC3)cc2)n1 [Example 233, 3-(4-(1-cyclopentylpiperidin-4-yl)phenylamino)-5-((2S,3R)-3-(3,3-dimethylureido)-2-methylpiperidin-1-yl)pyrazine-2-carboxamide] | 100 to 1000 nM | 100 to 1000 nM | 
19 | CN(C)C(=O)N[C@@H]1CCCN(c2cnc(C(N)=O)c(Nc3ccc(C(C)(C)C#N)cc3)n2)C1 [Example 197, (R)-3-(4-(2-cyanopropan-2-yl)phenylamino)-5-(3-(3,3-dimethylureido)piperidin-1-yl)pyrazine-2-carboxamide] |  | < 10 nM | < 10 nM
20 | CC(C)Oc1ccc(Nc2nc(N3CCC[C@@H](NC(=O)N(C)C)C3)cnc2C(N)=O)cc1 [Example 188, (R)-5-(3-(3,3-dimethylureido)piperidin-1-yl)-3-(4-isopropoxyphenylamino)pyrazine-2-carboxamide] |  | < 10 nM | < 10 nM
21 | CN1CCCN([C@@H]2CCCN(c3cnc(C(N)=O)c(Nc4ccc(C5CCN(C6CC6)CC5)cc4)n3)C2)C1=O [Example 284, (R)-3-(4-(1-cyclopropylpiperidin-4-yl)phenylamino)-5-(3-(3-methyl-2-oxotetrahydropyrimidin-1(2H)-yl)piperidin-1-yl)pyrazine-2-carboxamide] |  | < 10 nM | < 10 nM
22 | CS(=O)(=O)N[C@@H]1CCCN(c2cnc(C(N)=O)c(Nc3ccc(C4CCN(C5CCCC5)CC4)cc3)n2)C1 [Example 300, (R)-3-(4-(1-cyclopentylpiperidin-4-yl)phenylamino)-5-(3-(methylsulfonamido)piperidin-1-yl)pyrazine-2-carboxamide] | 10 to 100 nM | 10 to 100 nM | 
23 | CC(C)(C)c1ccc(NC(=O)N[C@@H]2CCCN(c3nnc(C(N)=O)c(Nc4ccc(C(=O)N5CCOCC5)cc4)n3)C2)cc1 [Example 79, (R)-3-(3-(3-(4-tert-butylphenyl)ureido)piperidin-1-yl)-5-(4-(morpholine-4-carbonyl)phenylamino)-1,2,4-triazine-6-carboxamide] | 10 to 100 nM | 10 to 100 nM | 
24 | NC(=O)c1nnc(N2CCC[C@@H](NC(=O)c3ccc(OCC(F)(F)F)cc3)C2)nc1Nc1ccc(C(=O)N2CCOCC2)cc1 [Example 86, (R)-5-(4-(morpholine-4-carbonyl)phenylamino)-3-(3-(4-(2,2,2-trifluoroethoxy)benzamido)piperidin-1-yl)-1,2,4-triazine-6-carboxamide] |  |  | < 10 nM
25 | NC(=O)c1nnc(N2CCC[C@@H](NC(=O)c3ccc(Oc4ccccc4)cc3)C2)nc1Nc1ccc(C(=O)N2CCOCC2)cc1 [Example 96, (R)-5-(4-(morpholine-4-carbonyl)phenylamino)-3-(3-(4-phenoxybenzamido)piperidin-1-yl)-1,2,4-triazine-6-carboxamide] |  | 10 to 100 nM | 
26 | CN(C/C=C/C(=O)N1CC[C@@H](Nc2nnc(C(N)=O)c(Nc3ccc(C(=O)N4CCOCC4)cc3)n2)C1)C1CC1 [Example 71, (R,E)-3-(1-(4-(cyclopropyl(methyl)amino)but-2-enoyl)pyrrolidin-3-ylamino)-5-(4-(morpholine-4-carbonyl)phenylamino)-1,2,4-triazine-6-carboxamide] |  | 10 to 100 nM | 
27 | CCC(=O)N1CCC(c2ccc(Nc3nc(N4CCC[C@@H](NC(=O)N5CCCCC5)C4)nnc3C(N)=O)cc2)CC1 [Example 339, (R)-3-(3-(piperidine-1-carboxamido)piperidin-1-yl)-5-(4-(1-propionylpiperidin-4-yl)phenylamino)-1,2,4-triazine-6-carboxamide] |  | < 10 nM | < 10 nM
28 | COc1cc(Nc2nc(N3CCC[C@@H](NC(=O)N(C)C)C3)cnc2C(N)=O)ccc1Cl [Example 182, (R)-3-(4-chloro-3-methoxyphenylamino)-5-(3-(3,3-dimethylureido)piperidin-1-yl)pyrazine-2-carboxamide] | 100 to 1000 nM | 100 to 1000 nM | 
29 | COc1ccc(C(=O)N[C@@H]2CCCN(c3cnc(C(N)=O)c(Nc4ccc(C5CCN(CC#N)CC5)cc4)n3)C2)cc1 [Example 136, (R)-3-(4-(1-(cyanomethyl)piperidin-4-yl)phenylamino)-5-(3-(4-methoxybenzamido)piperidin-1-yl)pyrazine-2-carboxamide] |  | 10 to 100 nM | 10 to 100 nM
